Laboratory results as given in patent publication US12173018B2, “Penicillin-binding protein inhibitors” (priority 2018, dated 2024).
Like-named read-outs stand apart in the source and are kept apart here.

Key:
E. coli AG100 = experiment: Broth microdilution MIC, E. coli AG100 (wild-type parent); assay type: cell-based; conditions: Escherichia coli; wild-type parent E. coli AG100, broth microdilution; read-out: MIC E. coli AG100
Procedure: To determine the ability of test compounds to potentiate the inhibition of the growth of bacterial strains, classic cell based broth microdilution minimum inhibitory concentration (MIC) assays were employed.
(§1) Briefly, cryo-preserved bacterial cultures of challenge strains are streaked for isolation on appropriate agar medium, in this case Mueller Hinton II agar. Following incubation to allow growth of the colonies, plates are sealed with parafilm and stored refrigerated for up to two weeks. For preparation of assay inoculum and to ensure low variability, at least 5 colonies are picked from the agar plates with an inoculating loop and aseptically transferred to a culture tube containing 3 mL of Mueller-Hinton Broth (supplemented with divalent cations to required levels based on Manufacturers' certification). The broth culture is grown for 3-5 hours at 37° C. with shaking at 200 rpm. Meanwhile, 2-fold serial dilutions of test compounds are conducted in a 96 well plate with a final volume of 75 μL per well at 2-fold the final desired concentration. After the dilution plates are set up the growing cultures are then diluted in a cuvette containing MH II broth and the optical density is measured at 600 nm. The Inoculum is diluted such that 75 μL of this culture in Mueller-Hinton Broth results in a starting bacterial concentration of 5×10^5 CFU/mL when added to the dilution plates. The plates are incubated for 16-20 hours at 37° C. The MIC values are read visually as the lowest concentration well with no bacterial growth.

E. coli PBP3 = E. coli PBP3 (Escherichia coli (strain K12), UniProt P0AD68); experiment: E. coli PBP3 Bocillin-FL fluorescence polarization competition binding assay
Chain of E. coli PBP3 (P0AD68 whole entry): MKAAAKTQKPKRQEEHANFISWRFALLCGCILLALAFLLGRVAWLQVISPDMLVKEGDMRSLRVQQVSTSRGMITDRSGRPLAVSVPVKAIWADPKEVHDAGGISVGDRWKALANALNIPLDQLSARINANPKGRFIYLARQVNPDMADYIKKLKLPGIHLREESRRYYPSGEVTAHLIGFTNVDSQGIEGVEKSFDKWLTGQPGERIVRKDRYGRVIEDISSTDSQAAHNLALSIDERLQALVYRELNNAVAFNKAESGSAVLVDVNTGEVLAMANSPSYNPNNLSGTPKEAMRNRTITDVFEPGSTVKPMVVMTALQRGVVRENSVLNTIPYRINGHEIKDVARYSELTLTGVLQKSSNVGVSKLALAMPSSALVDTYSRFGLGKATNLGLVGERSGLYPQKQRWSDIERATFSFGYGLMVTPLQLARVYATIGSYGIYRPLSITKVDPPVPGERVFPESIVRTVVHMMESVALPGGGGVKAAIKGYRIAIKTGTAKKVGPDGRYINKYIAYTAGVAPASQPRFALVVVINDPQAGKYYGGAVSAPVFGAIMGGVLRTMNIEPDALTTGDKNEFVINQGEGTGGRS
Text: To determine the ability of boronic acid-based test PBP inhibitors to bind Penicillin Binding Proteins (PBPs), Bocillin-FL (fluorescently-labeled penicillin V; ThermoFisher Scientific) was used in a fluorescence polarization (FP) competition binding assay to assess inhibitor binding to PBP2, PBP3 or PBP4 from Escherichia coli. PBPs were cloned and purified as described previously (King, D. T, et al., ACS Infectious Diseases 2015, 1, 175-184). To establish assay conditions for competition binding, an enzyme titration/saturation binding experiment was initially performed. Bocillin-FL was prepared at 0.2 μM in a buffer comprised of 50 mM Hepes (pH 8.0), 300 mM NaCl and 5% (v/v) glycerol. Saturation binding was performed by mixing 40 μl of PBP solutions ranging in concentrations from 0-12 μM with 40 μl of the 0.2 μM Bocillin-FL solution, in individual wells of a black 384-well microplate. FP was measured immediately upon mixing (Excitation, 490 nm; Emission, 520 nm; g-factor, 0.96), using a Cytation3 (BioTek) microplate reader and measured continuously for up to 120 minutes. […] Assays (80 μl final volume) were performed with PBPs at a final concentration of 1.5 μM, Bocillin-FL at 0.1 μM and beta-lactam concentrations that ranged from 0-1000 μM. […] Bocillin-FL was added and the FP immediately measured for 60 minutes (90 minutes for PBP2). The beta-lactam potency was reported as the concentration of beta-lactam required to reduce binding of Bocillin-FL by […] (EC50). […] Binding assays for boronic acid PBP inhibitors were performed in an identical fashion.

E. coli ATCC 25922 = experiment: Broth microdilution MIC, E. coli ATCC 25922; assay type: cell-based; conditions: Escherichia coli
Procedure: (§2) To determine the ability of test compounds to potentiate the inhibition of the growth of bacterial strains, classic cell based broth microdilution minimum inhibitory concentration (MIC) assays were employed. MIC assays are performed according to CLSI methods except where otherwise noted (CLSI, 2011 and CLSI, 2009). The reference type strain E. coli ATCC 25922, the wild-type parent strain E. coli AG100, the hyper-permeable E. coli 901C and E. coli D22 and the E. coli AG100A strain lacking the acrAB efflux pump encoding genes were used to determine the ability of the PBP inhibitors to penetrate the outer membrane of gram-negative bacteria and inhibit bacterial growth. […] The P. aeruginosa PAO1, P. aeruginosa ATCC 27853 and A. baumannii ATCC 19606, along with the hyper-permeable P. aeruginosa ATCC 35151 and an engineered efflux pump-compromised strain of P. aeruginosa (ΔmexAB-oprM) were used to determine the ability of PBP inhibitors to penetrate the outer membrane of P. aeruginosa and A. baumannii and assess antibacterial activity against these important gram-negative organisms.
as §1

E. coli D22 = experiment: microbe, parasite or virus in culture; assay type: cell-based; conditions: Escherichia coli; hyper-permeable E. coli D22, broth microdilution; read-out: MIC E. coli D22
Procedure: as §2, §1

E. coli 901C = experiment: microbe, parasite or virus in culture; assay type: cell-based; conditions: Escherichia coli; hyper-permeable E. coli 901C, broth microdilution; read-out: MIC E. coli 901C
Procedure: as §2, §1

E. coli AG100A = experiment: microbe, parasite or virus in culture; assay type: cell-based; conditions: Escherichia coli, read-out: MIC E. coli AG100A
Procedure: as §2, §1

K. pneumoniae UMM = experiment: microbe, parasite or virus in culture; assay type: cell-based; conditions: Klebsiella pneumoniae; K. pneumoniae UMM producing SHV-5 and KPC-2; read-out: MIC K. pneumoniae UMM
Procedure: as §2, §1

K. pneumoniae SI-117 = experiment: microbe, parasite or virus in culture; assay type: cell-based; conditions: Klebsiella pneumoniae, SI117, read-out: MIC K. pneumoniae SI-117
Procedure: as §2, §1

K. pneumoniae 848844 = experiment: microbe, parasite or virus in culture; assay type: cell-based, Klebsiella pneumoniae; conditions: Klebsiella pneumoniae; K. pneumoniae 848844 producing SHV-11 and KPC-2; read-out: MIC K. pneumoniae 848844
Procedure: as §2, §1

[1] = ATCC25922, E. coli ATCC 25922, broth microdilution, read-out: MIC E. coli 25922
[2] = fluorescence polarization competition binding with Bocillin-FL, read-out: E. coli K12 PBP3 Potency

SMILES	MIC (E. coli AG100) [µg/mL]	EC50 (E. coli PBP3) [µM]	MIC (E. coli ATCC 25922; [1]) [µg/mL]	MIC (E. coli D22) [µg/mL]	MIC (E. coli 901C) [µg/mL]	MIC (E. coli AG100A) [µg/mL]	MIC (K. pneumoniae UMM) [µg/mL]	MIC (K. pneumoniae SI-117) [µg/mL]	MIC (K. pneumoniae 848844) [µg/mL]	EC50 (E. coli PBP3; [2]) [µM]	MIC (E. coli ATCC 25922; ATCC25922, read-out: MIC E. coli 25922) [µg/mL]
CCN1CCN(C(=O)NC(C(=O)N[C@H]2Cc3cccc(C(=O)O)c3OB2O)c2ncccc2F)C(=O)C1=O (stereo partly drawn) [Example 162, (3R)-3-(2-(4-ethyl-2,3-dioxopiperazine-1-carboxamido)-2-(3-fluoropyridin-2-yl)acetamido)-2-hydroxy-3,4-dihydro-2H-benzo[e][1,2]oxaborinine-8-carboxylic acid]	32 to 64	30 to 500	32 to 64	8 to 16	0.5 to 1	2 to 4	32 to 64	32 to 64	> 128	–	–
CCOC(=O)c1cccc2c1OB(O)[C@@H](NC(=O)C(NC(=O)N1CCN(CC)C(=O)C1=O)c1ncc(O)cc1F)C2 (stereo partly drawn) [Example 195, Ethyl (3R)-3-(2-(4-ethyl-2,3-dioxopiperazine-1-carboxamido)-2-(3-fluoro-5-hydroxypyridin-2-yl)acetamido)-2-hydroxy-3,4-dihydro-2H-benzo[e][1,2]oxaborinine-8-carboxylate]	> 128	–	> 128	> 128	32 to 64	> 128	> 128	> 128	> 128	> 500	–
CCCN1CCN(C(=O)NC(C(=O)N[C@H]2Cc3cccc(C(=O)O)c3OB2O)c2ccc(O)cn2)C(=O)C1=O (stereo partly drawn) [Example 134, (3R)-3-(2-(2,3-dioxo-4-propylpiperazine-1-carboxamido)-2-(5-hydroxypyridin-2-yl)acetamido)-2-hydroxy-3,4-dihydro-2H-benzo[e][1,2]oxaborinine-8-carboxylic acid]	32 to 64	–	32 to 64	8 to 16	2 to 4	8 to 16	32 to 64	32 to 64	32 to 64	< 30	–
CCN1CCN(C(=O)N[C@H](C(=O)N[C@H]2Cc3cccc(C(=O)O)c3OB2O)c2ccc(S(N)(=O)=O)c(O)c2)C(=O)C1=O [Example 166, (R)-3-((S)-2-(4-ethyl-2,3-dioxopiperazine-1-carboxamido)-2-(3-hydroxy-4-sulfamoylphenyl)acetamido)-2-hydroxy-3,4-dihydro-2H-benzo[e][1,2]oxaborinine-8-carboxylic acid]	32 to 64	30 to 500	32 to 64	2 to 4	< 0.25	2 to 4	32 to 64	> 128	> 128	–	–
NS(=O)(=O)c1ccc([C@H](NC(=O)N2CCN(CCBr)C(=O)C2=O)C(=O)N[C@H]2Cc3cccc(C(=O)O)c3OB2O)cc1O [Example 171, (R)-3-((S)-2-(4-(2-bromoethyl)-2,3-dioxopiperazine-1-carboxamido)-2-(3-hydroxy-4-sulfamoylphenyl)acetamido)-2-hydroxy-3,4-dihydro-2H-benzo[e][1,2]oxaborinine-8-carboxylic acid]	32 to 64	30 to 500	–	0.5 to 1	0.5 to 1	8 to 16	32 to 64	> 128	> 128	–	32 to 64
CCN1CCN(C(=O)NC(C(=O)N[C@H]2Cc3cccc(C(=O)O)c3OB2O)c2ccc(OC)c(S(N)(=O)=O)c2)C(=O)C1=O (stereo partly drawn) [Example 144, (3R)-3-(2-(4-ethyl-2,3-dioxopiperazine-1-carboxamido)-2-(4-methoxy-3-sulfamoylphenyl)acetamido)-2-hydroxy-3,4-dihydro-2H-benzo[e][1,2]oxaborinine-8-carboxylic acid]	8 to 16	30 to 500	> 128	8 to 16	0.5 to 1	8 to 16	32 to 64	> 128	> 128	–	–
NCCN1CCN(C(=O)N[C@H](C(=O)N[C@H]2Cc3cccc(C(=O)O)c3OB2O)c2ncc(O)cc2F)C(=O)C1=O [Example 226, (R)-3-((S)-2-(4-(2-aminoethyl)-2,3-dioxopiperazine-1-carboxamido)-2-(3-fluoro-5-hydroxypyridin-2-yl)acetamido)-2-hydroxy-3,4-dihydro-2H-benzo[e][1,2]oxaborinine-8-carboxylic acid]	32 to 64	30 to 500	> 128	8 to 16	2 to 4	8 to 16	32 to 64	> 128	> 128	–	–
CCN1CCN(C(=O)N[C@H](C(=O)N[C@H]2Cc3cccc(C(=O)O)c3OB2O)c2ncc(O)cc2F)C(=O)C1=O [Example 176, (R)-3-((S)-2-(4-ethyl-2,3-dioxopiperazine-1-carboxamido)-2-(3-fluoro-5-hydroxypyridin-2-yl)acetamido)-2-hydroxy-3,4-dihydro-2H-benzo[e][1,2]oxaborinine-8-carboxylic acid]	32 to 64	–	32 to 64	2 to 4	< 0.25	2 to 4	32 to 64	32 to 64	> 128	< 30	–
CCN1CCN(C(=O)NC(C(=O)N[C@H]2Cc3cc(F)c(F)c(C(=O)O)c3OB2O)c2ccc(O)c(O)c2Cl)C(=O)C1=O (stereo partly drawn) [Example 180, (3R)-3-(2-(2-chloro-3,4-dihydroxyphenyl)-2-(4-ethyl-2,3-dioxopiperazine-1-carboxamido)acetamido)-6,7-difluoro-2-hydroxy-3,4-dihydro-2H-benzo[e][1,2]oxaborinine-8-carboxylic acid]	2 to 4	–	8 to 16	2 to 4	0.5 to 1	0.5 to 1	0.5 to 1	2 to 4	2 to 4	< 30	–
CCN1CCN(C(=O)NC(C(=O)N[C@H]2Cc3ccc(F)c(C(=O)O)c3OB2O)c2cccnc2)C(=O)C1=O (stereo partly drawn) [Example 141, (3R)-3-(2-(4-ethyl-2,3-dioxopiperazine-1-carboxamido)-2-(pyridin-3-yl)acetamido)-7-fluoro-2-hydroxy-3,4-dihydro-2H-benzo[e][1,2]oxaborinine-8-carboxylic acid]	> 128	30 to 500	> 128	8 to 16	2 to 4	32 to 64	32 to 64	> 128	> 128	–	–
